From patent US20130035390A1, “TREATMENT OF MULTIPLE SCLEROSIS” (Ramot at Tel-Aviv University Ltd., priority 2010, published 2013)

Assays:
Foxp3 = assay: Western blotting of splenocyte lysates: Foxp3; type: in vivo, mice; conditions: day 17 post EAE-induction; FTS 20 mg/kg/day i.p., GA 15 mg/kg/day s.c.
Source text: (§1) On day 16 post EAE-induction, the brains and splenocytes of the mice (n=4 per each group) were homogenized and their lysates were subjected to sodium dodecyl sulfate-olyacrylamide gel electrophoresis followed by western blotting, as described (Goldberg and Kloog, 2006), with one of the following antibodies: pan-RAS (Ab-3; Calbiochem, San Diego, Calif.), anti-CD3 Ab (AbD serotec, Oxford, UK), anti-ERK (Santa Cruz Biotechnology, CA. USA), anti phospho-ERK (Sigma, USA), anti-tubulin Ab and anti-Foxp3 Ab (eBioScience, San Diego, Calif.). Protein bands were visualized by enhanced chemiluminescence (ECL) kit (Amersham Pharmacia Biotech, Arlington Heights, Ill.) and quantified by densitometry with Image EZQuant-Gel software (Copyright©2005, EZQuant Ltd). Lysates were used to determine Ras-GTP by the glutathione S-transferase (GST)-Ras-binding domain pulldown assay, and this was followed by western blotting with anti pan-Ras Ab.

[1] = test system: lymphocytes from the spleens of EAE mice; assay: Ex vivo BrdU proliferation response of EAE splenocytes to antigens and mitogens; type: cell-based; conditions: in vivo FTS 20 mg/kg/day i.p., GA 15 mg/kg/day s.c.
Protocol: Pooled single cell suspension of spleens were obtained on […] post-EAE induction and assayed in vitro for their response to antigens and mitogens ([…], lipopolysacharide—LPS, and concanavalin A—ConA) by a proliferation assay. The assay was carried out by plating in each microculture well 2×10^4 cells in 0.1 ml of proliferation medium containing optimal concentration of antigens as follows: 25 μg/ml MOG, 50 μg/ml MOG, 20 μg/ml LPS or 1 μg/ml of ConA. The experiments were performed in triplicate in 96-well, flat-bottom, microtiter plates (Costar, Cambridge, USA). Cultures were incubated for 72 h in humidified atmosphere of 95% air and 5% CO2 at 37° C. Cell proliferation was determined by Colorimetric Bromodeoxyuridine (BrdU) Cell Proliferation kit (Calbiochem, Darmstadt, Germany) following manufacturer's instructions. In brief, 20 μl of BrdU labeling solution diluted 1:2000 in culture medium were added to each well for the last 18 h of culture. After removing the medium, cells were fixed, and anti-BrdU peroxidase working solution was added to each well and incubated for one (1) hour at room temperature. Following several washes, substrate solution was added, color was developed, and absorbance was measured with a microplate reader at 450 nm. The stimulation index (S.I.) was calculated as follows: the mean absorbance of cells culture in the presence of antigen divided by the mean absorbance of cells in the absence of antigen.
Lymphocytes were obtained from the spleens of mice on day 16 post immunization with MOG and subjected to ex vivo BrdU incorporation proliferation assays. […] The cells, obtained from the four groups described above, were stimulated with various mitogens ex vivo for 48 h.

[2] = test system: EAE lesions and blood-brain barrier disruption in the spinal cord; assay: MR imaging of spinal cord (L1-S3) of EAE mice, T2-map and Gd-DTPA T1-weighted; type: in vivo, C57bl/6 mice; conditions: day 14 post EAE-induction; FTS 20 mg/kg/day i.p., GA 15 mg/kg/day s.c.; FIG. 2C
Protocol: The treatment effect was evaluated by MRI experiments which were conducted on day 14 after EAE-induction. […] During the MRI scanning, mice were anesthetized with isofluorane (3% for induction, 1-2% for maintenance) mixed with compressed air (1 l/min) delivered through a nasal mask. Once anesthetized, the animals were placed in a body-holder to assure reproducible positioning inside the magnet. Respiration rate was monitored and maintained throughout the experimental period at 60-80 breaths/min. MRI experiments were performed on a 7T Bruker scanner (70/30 USR Bruker BioSpec, Germany) equipped with a gradient coil system capable of producing pulse gradients of up to 400 mT/m in each of the three directions. […]
T2-map MRI was used to deliberate the EAE lesions (demyelination) in the mice's spinal cords. Lesion volume was calculated from the T2-map MR images using the MATLAB® image processing toolbox. […] From that value was then subtracted the value of a normal appearing parallel tissue in the same slice which was measured in the same way as described above. […]
The gadolinium enhancement obtained from T1-weighted MRI reflects the infusate distribution in the mice's blood-brain barrier within the spinal cord. Thus, the volume (in mm^3) of infusate distribution was calculated from the T1-weighted MRI. […] The volume in the regions of interest was counted and accumulated for each mouse.

EAE mice = assay: Clinical signs of MOG-induced EAE, late treatment from day 9; type: in vivo, C57bl/6 mice; conditions: for percent of the maximal response: score difference relative to control score 2.4
Protocol: Eight-week-old female C57bl/6 mice were purchased from Harlan. The mice were housed under standard conditions in top filtered cages. Mice were fed a regular diet and given acidified water without antibiotics.
Disease was induced by immunization with the peptide encompassing amino acids 35-55 of rat MOG synthesis (Anaspec, Fremont, Calif.). Mice were injected subcutaneously (s.c.) at the flank, with a 200 μl emulsion containing 300 μg of MOG in complete Freund's adjuvant (CFA) enriched with 500 μg Mycobacterium tuberculosis H37Ra (Difco Laboratories, Detroit, Mich.). Pertussis toxin (List biological laboratories, California, USA), […], was injected intra-peritoneally (i.p.) immediately after the MOG injection and then 48 h later. Mice were examined daily. EAE was scored as follows: 0, no abnormality; 1, mild limp tail weakness (floppy tail); 2, tail paralysis; 3, tail paralysis and hind leg paresis; 4, hind leg paralysis or mild forelimb weakness; 5, quadriplegia or moribund state; 6, death.
Briefly, FTS (as powder) was diluted in chloroform (35.8 mg/ml of FTS=0.1 M) and kept in aliquots. The content (280 μl) of one aliquot was evaporated under nitrogen and then dissolved in 40 μl absolute ethanol and 15 μl NaOH; 2.5 ml of PBS was subsequently added. Each mouse received 0.1 ml of this solution daily (0.4 mg/mouse which on a per unit weight basis equates to 20 mg/kg) intraperitoneally (i.p.), starting from day 9 of disease induction, just before the clinical onset of paralysis.
EAE was induced in C57bl/6 mice with MOG and drug treatment started on day 9 of disease induction. The animals were divided into four (4) groups.

[3] = test system: infiltration and demyelination in the spinal cords of EAE mice; assay: Histology of lumbar spinal cord (H&E, LFB); type: in vivo, C57bl/6 mice; conditions: day 16 post EAE-induction; FTS 20 mg/kg/day i.p., GA 15 mg/kg/day s.c.
Source text: The lumbar part of the mice's spinal cord (n=8 mice for each group) was fixed in 4% paraformaldehyde (Electric Microscopy Science, PA, USA) and embedded in paraffin and cut in 4-μm-thick axial sections. Sections were stained with hematoxylin and eosin (H&E) and luxol fast blue (LFB) and then mounted in histomount medium (Invitrogen Corporation, CA, USA). Images were examined under a light microscope and captured with a NikonDS-5Mcamera (NikonInstech, Tokyo, Japan). Quantification of the inflammation and demyelination was conducted as previously described (Mi, et al., 2007). Briefly, to quantify inflammation H&E-stained nuclei were imaged, counted and percentage of stained cells per field were calculated. Similarly the percentage of regions with demyelination per field was estimated by counting the LFB-stained images. Imaging was aided by the use of Image-Pro Plus 5.1 software (MediaCybernetics, Silver, Spring, Md.).

phospho-Erk = assay: Western blotting of splenocyte lysates: phospho-Erk; type: in vivo, mice; conditions: FTS 20 mg/kg/day i.p., GA 15 mg/kg/day s.c.
Source text: as §1

Ras = assay: Western blotting of splenocyte lysates: Ras; type: in vivo, mice; conditions: FTS 20 mg/kg/day i.p., GA 15 mg/kg/day s.c.
Source text: as §1

[4] = 0-6 scale, FTS 20 mg/kg/day i.p., GA 100 mg/kg/day s.c., daily from day 9, FIG. 1A
[5] = Example II: 0-6 scale, FTS 60 mg/kg/day p.o., GA 15 mg/kg/day s.c., FIG. 7A
[6] = Example II: FTS 60 mg/kg/day p.o., GA 15 mg/kg/day s.c., daily from day 9
[7] = FTS 20 mg/kg/day i.p., GA 15 mg/kg/day s.c.
[8] = FTS 20 mg/kg/day i.p., GA 15 mg/kg/day s.c., daily from day 9, four experiments
[9] = FTS 20 mg/kg/day i.p., GA 100 mg/kg/day s.c., daily from day 9, three experiments

| Compound | increase of Foxp3 level in splenocytes vs. control (Foxp3) | decrease in lymphocyte proliferation vs. control ([1]; stimulated with 25 μg/ml MOG) | decrease in lymphocyte proliferation vs. control ([1]; stimulated with 50 μg/ml MOG) | decrease in total volume of T2-map lesions per mouse vs. control [2] | maximal average clinical score (EAE mice; 0-6 scale, FTS 20 mg/kg/day i.p., GA 15 mg/kg/day s.c., daily from day 9, FIG. 1B) | maximal average clinical score (EAE mice; [4]) | maximal average clinical score (EAE mice; [5]) | animals that developed clinical signs of EAE (EAE mice; [6]) [%] | maximal average clinical score (EAE mice; Example III: 0-6 scale, FTS 40 mg/kg/day s.c. (dissolved in GA in the combination), GA 15 mg/kg/day s.c., FIG. 7B) | animals that developed clinical signs of EAE (EAE mice; Example III: FTS 40 mg/kg/day s.c. (dissolved in GA in the combination), GA 15 mg/kg/day s.c., daily from day 9) [%] | clinical score as control score (2.4) minus treated score (EAE mice; [7]) | animals that developed clinical signs of EAE (EAE mice; [8]) [%] | animals that developed clinical signs of EAE (EAE mice; [9]) [%] | percent of the maximal response (EAE mice; [7]) [%] | decrease in regions of demyelination (LFB) vs. control [3] | reduction of regions with inflammatory infiltrates (H&E nuclei counts) vs. control [3] | decrease in phospho-Erk level in splenocytes vs. GA alone (phospho-Erk) | decrease in phospho-Erk level in splenocytes vs. control (phospho-Erk) | decrease in Ras level in splenocytes vs. control (Ras) |
| --- | --- | --- | --- | --- | --- | --- | --- | --- | --- | --- | --- | --- | --- | --- | --- | --- | --- | --- | --- |
| CC(C)=CCC/C(C)=C/CC/C(C)=C/CSc1ccccc1C(=O)O [FTS, S-trans,trans-farnesylthiosalicylic acid] | No significant elevation | 17.85%±5.34% | 29.9%±9.18% | 30.1%±7% | 2.15±0.45 | 1.07±0.6 | 1±0.33 | 60 | 1.72±0.45 | 90 | 0.25±0.11 | 82.5 | 60.7 | 25 | 59.18±10.6% | 28.44%±11.2% | 51.38%±5.6% | 50.18%±9.1% | – |
| L-glutamic acid polymer with L-alanine, L-lysine and L-tyrosine, acetate (salt) [GA] | No significant elevation | 43.19%±6.35% | 41.22%±6.12% | – | – | 1.4±0.43 | 1.3±0.213 | 70 | – | – | 0.02±0.05 | 77.5 | 70.3 | 2 | 48.97%±6.78% | 33.12%±6.98% | – | does not reduce significantly | does not reduce significantly |
